Assay results taken from article PMC12416277, “Phytochemical alkaloids orchestrate immunometabolism against viral infections” (National Science Review, 2025).

Tests used:
[1] = test system: VSV; assay type: cell-based, vesicular stomatitis virus (VSV)
[2] = test system: EMCV; experiment: microbe, parasite or virus in culture; assay type: cell-based, encephalomyocarditis virus (EMCV); details: Cardiovirus A, L929
[3] = test system: HSV-1; experiment: microbe, parasite or virus in culture; assay type: cell-based, herpes simplex virus 1 (HSV-1); details: Human alphaherpesvirus 1, L929
[4] = test system: sgRNA-Npc1 cells; assay type: cell-based, mouse
[5] = test system: IFN-β; experiment: IFN-β secretion in MEF cells (ELISA); assay type: cell-based
[6] = test system: EMCV; experiment: microbe, parasite or virus in culture; assay type: cell-based, encephalomyocarditis virus (EMCV); details: Cardiovirus A, A549
[7] = test system: VSV; assay type: cell-based, vesicular stomatitis virus (VSV); remark: listed apart in the source
[8] = test system: VSV; assay type: cell-based, vesicular stomatitis virus (VSV); remark: listed apart in the source
[9] = test system: VSV; assay type: cell-based, vesicular stomatitis virus (VSV); details: Sting-/- BMDM cells vs WT
[10] = molecular target: T1, NPC1 (Homo sapiens, UniProt O15118); experiment: Cellular thermal shift assay (CETSA); details: 150 µM, HepG2 and A549 lysates
T1 sequence (O15118 23-1278): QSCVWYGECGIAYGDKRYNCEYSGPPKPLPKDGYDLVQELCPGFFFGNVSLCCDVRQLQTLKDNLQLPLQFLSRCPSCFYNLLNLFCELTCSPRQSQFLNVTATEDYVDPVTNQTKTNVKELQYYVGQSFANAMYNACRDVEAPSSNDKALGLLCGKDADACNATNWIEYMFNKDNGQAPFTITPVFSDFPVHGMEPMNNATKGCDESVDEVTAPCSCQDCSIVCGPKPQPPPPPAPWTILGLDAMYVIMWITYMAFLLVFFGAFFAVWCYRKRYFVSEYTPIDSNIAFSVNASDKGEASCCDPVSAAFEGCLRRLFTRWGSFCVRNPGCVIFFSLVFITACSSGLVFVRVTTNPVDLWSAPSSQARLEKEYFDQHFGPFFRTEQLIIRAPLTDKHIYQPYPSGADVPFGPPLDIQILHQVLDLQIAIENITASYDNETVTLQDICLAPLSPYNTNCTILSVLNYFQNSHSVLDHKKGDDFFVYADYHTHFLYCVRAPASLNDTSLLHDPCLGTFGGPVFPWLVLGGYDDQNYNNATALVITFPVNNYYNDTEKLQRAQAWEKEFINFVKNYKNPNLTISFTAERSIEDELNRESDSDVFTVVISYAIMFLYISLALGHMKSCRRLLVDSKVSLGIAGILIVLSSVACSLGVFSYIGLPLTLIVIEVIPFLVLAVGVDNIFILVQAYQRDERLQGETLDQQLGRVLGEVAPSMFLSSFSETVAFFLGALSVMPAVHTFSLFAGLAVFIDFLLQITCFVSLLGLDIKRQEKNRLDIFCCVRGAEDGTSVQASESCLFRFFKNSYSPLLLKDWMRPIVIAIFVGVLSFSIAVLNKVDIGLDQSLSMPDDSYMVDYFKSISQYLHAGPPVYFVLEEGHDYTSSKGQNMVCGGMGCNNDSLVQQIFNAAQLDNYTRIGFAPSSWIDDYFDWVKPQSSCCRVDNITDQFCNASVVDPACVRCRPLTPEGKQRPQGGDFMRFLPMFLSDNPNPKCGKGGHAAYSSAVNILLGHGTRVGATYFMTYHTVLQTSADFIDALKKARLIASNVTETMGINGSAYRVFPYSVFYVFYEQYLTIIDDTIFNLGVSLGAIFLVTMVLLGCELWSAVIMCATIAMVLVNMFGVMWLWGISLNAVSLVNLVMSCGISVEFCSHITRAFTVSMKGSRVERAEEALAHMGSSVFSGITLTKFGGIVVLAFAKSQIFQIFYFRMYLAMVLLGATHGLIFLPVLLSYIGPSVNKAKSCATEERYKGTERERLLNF

[11] = test system: STAT1; experiment: Confocal analysis of nuclear localization of STAT1 in A549 cells; assay type: cell-based
[12] = test system: cholesterol metabolism genes; assay type: cell-based, human
[13] = molecular target: T1, NPC1; experiment: Drug affinity responsive target stability (DARTS); details: 150 µM, pronase digestion
[14] = test system: A549 cells; assay type: cell-based
[15] = test system: HSV-1; experiment: microbe, parasite or virus in culture; assay type: cell-based, herpes simplex virus 1 (HSV-1); details: Human alphaherpesvirus 1, A549
[16] = test system: Ifnb1, Ifit1, Ifit2 and Ifi44 mRNA; experiment: Ifnb1 and ISG mRNA in mouse lungs, livers, spleens after intraperitoneal injection; assay type: in vivo; details: intraperitoneal 30, 60 mg/kg/d, 24-48 h

What does the source list for `COc1ccc2cc1Oc1ccc(cc1)C[C@H]1c3cc(c(OC)cc3CCN1C)Oc1c(OC)c(OC)cc3c1[C@H](C2)N(C)CC3` [Tet, tetrandrine]?
VSV replication [1]: suppressed; antiviral efficacy [1]: remained unchanged; EC50 [2]: 989 nM; EC50 [3]: 132 nM; antiviral effects [4]: attenuated but restored with Flag-tagged NPC1 reintroduction; IFN-β production [5]: induced; EC50 [6]: 231 nM; VSV infection [7]: effectively suppressed; VSV attachment [8]: without affecting virus attachment; VSV infection during entry or post-entry stages [8]: inhibited; VSV-eGFP entry into lysosomes [8]: blocked; antiviral effect against VSV [9]: markedly reduced; NPC1 stability (CETSA) [10]: enhanced NPC1 stability against degradation; STAT1 nucleus translocation [11]: promoted STAT1 nucleus translocation; expression of genes involved in cholesterol synthesis (SREBF2, HMGCR, SQLE, SREBP1C, DHCR24, DHCR7, FASN) and absorption (LDLR) [12]: increased expression; expression of genes related to cholesterol transport (ABCA1, ABCG1), oxidation (CYP27A1, CYP46A1) or esterification (ACAT1, ACAT2) [12]: did not affect the expression; NPC1 stability (DARTS) [13]: enhanced NPC1 stability against degradation; intracellular cholesterol levels [14]: higher intracellular cholesterol levels; EC50 [15]: 1590 nM; Ifnb1 and ISGs mRNA levels in vivo [16]: increased Ifnb1 and ISGs mRNA levels in vivo, particularly in lungs and livers
